Patent publication US11761894B2, “Silicon-rhodamine fluorescent probe containing hydrophobic group and use thereof” (AJOU UNIVERSITY INDUSTRY—ACADEMIC COOPERATION FOUNDATION, priority 2019, dated 2023)

How the values were obtained:
[1] = test system: mitochondria in HeLa cells; assay: Colocalization test of SiR-Mito probes with MitoTracker green in HeLa cells; format: cell-based, human; conditions: 1 μM probe, 1 h
Description: HeLa cells were incubated with cell culture media containing 1 μM SiR-Mito probe, and 0.5 μM MitoTracker green. After 1 h, HeLa cells were washed three times with 1×PBS for and observed with a LEICA DMi8 fluorescent microscope. Each experiment was observed using 512-542 nm emitter for FITC channel (for MitoTracker Green), and 663-738 nm exciter, 545-625 nm emitter for Cy5 channel (for SiR-Mito probes). Scale bar: 50 μm.
HeLa human cervical cancer cells were cultured in Dulbecco's modified eagle media (DMEM, GIBCO) containing 10% fetal bovine serum (FBS, GIBCO) and 1% penicillin (GIBCO) at 37° C. in a humidified incubator with 5% CO2. For the fluorescence microscope imaging, cells were harvested using TrypLE™ Express (GIBCO) and resuspended in fresh culture medium. Harvested cells with a density of 4.0×10^3 cells/well were seeded on a HeLa 96 black well plate (CORNING) and incubated for 24 h. Cells were incubated with SiR-Mito probes (1 μM) and MitoTracker Green (0.5 μM) for 60 min. After the incubation, cells were washed with 1×PBS for three times and observed with inverted fluorescence microscope (DMi8, LEICA). Each experiment was observed using a 325-375 nm exciter, 435-485 nm emitter for DAPI channel, 460-500 nm exciter, 512-542 nm emitter for FITC channel, 541-551 nm exciter, 565-605 nm emitter for Rhodamine channel, and 663-738 nm exciter, 545-625 nm emitter for Cy5 channel.
To determine the effect of probe hydrophobicity on the efficiency of targeting to mitochondria, the Pearson coefficient for colocalization of SiR-Mito probes and MitoTracker green, a commercial fluorescent mitochondrial bioprobe, was measured (FIG. 1). For the colocalization test, human cervical cancer HeLa cells were seeded on 96-well plates and incubated for 1 h with 1 μM of each different SiR-Mito probe and 0.5 μM MitoTracker green, washed briefly with 1×PBS, and imaged with a LEICA DMi8 fluorescent microscope using the 40× objective.

[2] = test system: Hep3B liver cancer cells vs L02 or Chang normal liver cells; assay: Comparison of fluorescence intensity between normal cells and cancer cells; format: cell-based, human; conditions: 1 μM, 1 h
Description: (a) Cells were incubated with full growth media containing SiR-Mito 8 (1 μM) and Hoechst dye (0.01 μg/ml) for 1 h. The cells were washed 3 times with growth media and observed with a LEICA DMi8 fluorescent microscope. […] (b) Quantification of the fluorescence intensity of SiR-Mito 8 in L02, Chang liver and in Hep3B cells. Scale bar: 50 μm.
Therefore, the present inventors envisioned that SiR-Mito 8 could differentiate cancer cells from normal cells without involving ligand conjugation. For fluorescent tumor imaging, human liver cancer Hep3B cells and the human hepatocyte line L02 were incubated with 1.0 μM SiR-Mito 8 for 1 hour, washed three times with cell growth media, and imaged using a LEICA DMi8 fluorescence microscope.
Specifically, Hep3B human liver cancer cells were cultured in Dulbecco's modified eagle media (DMEM, GIBCO) containing 10% fetal bovine serum (FBS, GIBCO) and 1% penicillin (GIBCO), and L02 or Chang human liver normal cells were cultured in Roswell Park Memorial Institute (RPMI, CAPRICORN) 1640 with L-Glutamine containing 10% FBS (GIBCO) and 1% Penicillin (HyClone) at 37° C. in a humidified incubator with 5% CO2. For the fluorescence microscope imaging, cells were harvested using TrypLE™ Express (GIBCO) and resuspended in fresh culture medium. […] Cells were washed with cell culture media for three times and observed with inverted fluorescence microscope (DMi8, LEICA).

Substance: N-(10-(5-((cyclooctylmethyl) carbamoyl)-2-methylphenyl)-7-(dimethylamino)-5,5-dimethyldibenzo[b,e]silin-3(5H)-ylidene)-N-methylmethanaminium [SiR-Mito 8]
- Mitochondria Targeting (Pearson coefficient for colocalization with MitoTracker green) ([1]; 0.5 μM MitoTracker green): *** (*** 0.9 ≤ R)
- Pearson coefficient for colocalization with MitoTracker green ([1]; 0.5 μM MitoTracker green): highest
- Intracellular fluorescence (SiR channel) [1]: strongest
- Fluorescence intensity in cancer cells versus normal cells [2]: higher fluorescence intensity than normal cells
